The target in one assay is human CPTP (wtCPTP). Put plainly: FRET from CPTP Trp/Tyr to dansyl-PE in POPC vesicles. The assay is classed as binding. The note with it: pH 6.6, 150 mM NaCl, EDTA, 25 °C. From the text:
FRET from CPTP Trp/Tyr to dansyl-PE in POPC vesicles on human CPTP (wtCPTP)

The target in the next assay is T1, human GLTP (Homo sapiens, UniProt Q9NZD2).
T1 sequence (Q9NZD2 1-209): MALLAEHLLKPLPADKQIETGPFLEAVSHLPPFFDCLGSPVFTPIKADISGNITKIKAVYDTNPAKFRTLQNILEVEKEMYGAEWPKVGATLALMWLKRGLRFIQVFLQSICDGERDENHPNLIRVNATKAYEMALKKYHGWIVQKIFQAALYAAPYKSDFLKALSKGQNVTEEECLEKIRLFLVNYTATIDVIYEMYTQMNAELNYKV
Put plainly: FRET intervesicular lipid transfer. Type of assay: biochemical. The note with it: labelled compound; POPC donor to POPC acceptor vesicles, pH 6.6, 150 mM NaCl, EDTA, 25 °C; transfer cargo, not chemically converted.

Where [1] appears, read: apparent Kd for POPC vesicles with 10 mol% lipid and 2 mol% dansyl-PE (vesicle PC concentration, not free lipid).

From publication PMC8091061, “Ceramide-1-phosphate transfer protein (CPTP) regulation by phosphoinositides” (The Journal of Biological Chemistry, 2021) come the findings set out here.

On to `CCCCCCCC/C=C\CCCCCCCC(=O)OC[C@H](COP(=O)(O)O[C@H]1[C@H](O)[C@@H](O)[C@H](OP(=O)(O)O)[C@@H](O)[C@H]1O)OC(=O)CCCCCCC/C=C\CCCCCCCC` [PI-4P, 1,2-dioleoyl-sn-glycero-3-phospho-(1'-myo-inositol-4'-phosphate)], for which the Kd on human CPTP (wtCPTP) (setting [1]) turned out to be 260 ± 30 nM.

`CCCCCCCC/C=C\CCCCCCCC(=O)OC[C@H](COP(=O)(O)O[C@@H]1[C@H](O)[C@H](O)[C@@H](O)[C@H](O)[C@H]1O)OC(=O)CCCCCCC/C=C\CCCCCCCC` [PI, 1,2-dioleoyl-sn-glycero-3-phospho-(1'-myo-inositol)]: on human CPTP (wtCPTP) (setting [1]), the Kd is 750 ± 90 nM.

PI-3P: the Kd on human CPTP (wtCPTP) (setting [1]) came to 290 ± 40 nM.

With `CCCCCCCC/C=C\CCCCCCCC(=O)OC[C@H](COP(=O)(O)O[C@@H]1[C@H](O)[C@H](O)[C@@H](OP(=O)(O)O)[C@H](OP(=O)(O)O)[C@H]1O)OC(=O)CCCCCCC/C=C\CCCCCCCC` [PI-(4,5)P2, 1,2-dioleoyl-sn-glycero-3-phospho-(1'-myo-inositol-4',5'-bisphosphate)], on human CPTP (wtCPTP) (setting [1]), the Kd came to 260 ± 40 nM.

For `CCCCCCCCCCCCC/C=C/[C@@H](O)[C@H](CO[C@@H]1O[C@H](CO)[C@H](O)[C@H](O)[C@H]1O)NC(=O)CCCCCCCCC/C=C/c1c2ccccc2cc2ccccc12` [AV-GalCer], the “FRET intervesicular lipid transfer” value on human GLTP is “GalCer transfer rates by GLTP were unaffected by PI and PI-3P”.

As to `CCCCCCCC/C=C\CCCCCCCC(=O)O[C@H](COC(=O)CCCCCCCCCCCCCCC)COP(=O)([O-])OCC[N+](C)(C)C` [POPC, 1-Palmitoyl-2-oleyl-sn-glycero-3-phosphocholine], the Kd on human CPTP (wtCPTP) (pure POPC vesicles with 2 mol% dansyl-PE (apparent, vesicle PC concentration)) was 1760 ± 200 nM.
